In ChEMBL document CHEMBL1143355, “Aryl sulphonyl amides as potent agonists of the growth hormone secretagogue (ghrelin) receptor” (Bioorg Med Chem Lett, 2009):

Columns and labels:
[1] = molecular target: Growth hormone secretagogue receptor type 1 (Homo sapiens, UniProt Q92847); assay: Agonist activity at human ghrelin receptor by cell based BACMAM FLIPR assay; format: functional
[2] = Half life in Sprague-Dawley rat at 1 mg/kg, iv; format: ADME, organism-based; parameters: dose 1 mg/kg, route intravenous; details: in vivo
[3] = Mean residence time in Sprague-Dawley rat at 1 mg/kg, iv; format: ADME, organism-based; parameters: dose 1 mg/kg, route intravenous; details: in vivo
[4] = Cmax in Sprague-Dawley rat at 3 mg/kg, po; format: ADME, organism-based; parameters: dose 3 mg/kg, route oral; details: in vivo
[5] = Tmax in Sprague-Dawley rat at 3 mg/kg, po; format: ADME, organism-based; parameters: dose 3 mg/kg, route oral; details: in vivo
Rattus norvegicus = assay: AUC (0 to 6 hrs) in Sprague-Dawley rat at 3 mg/kg, po; format: ADME, organism-based, Plasma; parameters: time < 6 hr, dose 3 mg/kg, route oral; details: in vivo
[6] = Total body clearance in Sprague-Dawley rat at 1 mg/kg, iv; format: ADME, organism-based; parameters: dose 1 mg/kg, route intravenous; details: in vivo
[7] = Volume of distribution at steady state in Sprague-Dawley rat at 1 mg/kg, iv; format: ADME, organism-based; parameters: dose 1 mg/kg, route intravenous; details: in vivo, read-out: Vdss
[8] = Cmax in Sprague-Dawley rat at 1 mg/kg, iv; format: ADME, organism-based; parameters: dose 1 mg/kg, route intravenous; details: in vivo

Growth hormone secretagogue receptor type 1, sequence (Q92847 whole entry): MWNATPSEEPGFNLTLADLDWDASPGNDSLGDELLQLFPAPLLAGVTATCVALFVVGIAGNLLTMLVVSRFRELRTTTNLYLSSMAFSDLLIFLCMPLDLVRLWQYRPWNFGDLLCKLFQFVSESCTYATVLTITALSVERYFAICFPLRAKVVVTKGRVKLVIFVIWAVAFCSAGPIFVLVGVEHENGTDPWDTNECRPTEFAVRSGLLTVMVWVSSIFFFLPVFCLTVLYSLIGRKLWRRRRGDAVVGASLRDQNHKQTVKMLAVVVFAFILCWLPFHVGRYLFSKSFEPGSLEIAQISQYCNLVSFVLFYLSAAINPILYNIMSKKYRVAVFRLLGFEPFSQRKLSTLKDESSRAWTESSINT

| SMILES | EC50 [1] [nM] | further results |
| --- | --- | --- |
| N[C@H]1CCN(C(=O)[C@@H]2CCCCN2S(=O)(=O)c2ccc(NC(=O)c3ccccc3)cc2)C1 | 20 |  |
| Cc1ccc(-c2ccc(S(=O)(=O)N3CCCC[C@H]3C(=O)N3CC[C@@H](N)C3)cc2)o1 | 0.251 |  |
| COc1cccc(C(=O)Nc2ccc(S(=O)(=O)N3CCCC[C@H]3C(=O)N3CC[C@H](N)C3)cc2)c1 | 2 |  |
| N[C@@H]1CCN(C(=O)[C@@H]2CCCCN2S(=O)(=O)c2ccc(-c3ccco3)c(F)c2)C1 | 3.16 |  |
| N[C@H]1CCN(C(=O)[C@H]2CCCCN2S(=O)(=O)c2ccc(-c3ccccc3)cc2)C1 | > 5010 |  |
| Cc1ccc(-c2ccc(S(=O)(=O)N3CCCC[C@H]3C(=O)N3CC[C@H](N)C3)cc2F)o1 | 0.158 |  |
| CNC1CCN(C(=O)[C@@H]2CCCCN2S(=O)(=O)c2ccc(-c3ccc(C)o3)cc2)C1 (stereo not given in full) | 10 |  |
| Cc1ccc(-c2ccc(S(=O)(=O)N3C[C@@H](O)C[C@H]3C(=O)N3CC[C@@H](N)C3)cc2F)o1 | 5.01 |  |
| N[C@H]1CCN(C(=O)[C@@H]2CCCCN2S(=O)(=O)c2ccc(NC(=O)c3ccccc3F)cc2)C1 | 3.98 |  |
| Cc1ccc(-c2ccc(S(=O)(=O)N3CCCC[C@H]3C(=O)N3C[C@@H](C)N[C@@H](C)C3)cc2F)o1 | 2.51 |  |
| Cc1ccc(-c2ccc(S(=O)(=O)N3CCCC[C@H]3C(=O)N3CCCNCC3)cc2)o1 | 7.94 |  |
| Cc1ccc(-c2ccc(S(=O)(=O)N3CCCC[C@H]3C(=O)N3C[C@@H](C)N[C@@H](C)C3)cc2)o1 | 6.31 |  |
| Cc1ccc(-c2ccc(S(=O)(=O)N3CCCC[C@H]3C(=O)N3CC[C@@H](N)C3)cc2F)o1 | 0.0501 |  |
| N[C@@H]1CCN(C(=O)[C@H]2CCCCN2S(=O)(=O)c2ccc(-c3ccccc3)cc2)C1 | > 5010 |  |

The next lines start with results.

| EC50 [1] [nM] | SMILES | further results |
| --- | --- | --- |
| 31.6 | NC1CCN(C(=O)C2CCCCN2S(=O)(=O)c2ccc(-c3ccccc3)cc2)C1 (stereo not given) |  |
| 1 | N[C@@H]1CCN(C(=O)[C@@H]2CCCCN2S(=O)(=O)c2ccc(-c3cc(F)ccc3F)cc2)C1 |  |
| 0.398 | Cc1ccc(-c2ccc(S(=O)(=O)N3CCC[C@H]3C(=O)N3CC[C@@H](N)C3)cc2F)o1 | half-life [2]: 2.4 h; MRT [3]: 2.4 h; Cmax [4]: 151 nM; Tmax [5]: 4 h; AUC (Rattus norvegicus): 5 kg·min/L; clearance [6]: 25 mL/min/kg; Vd [7]: 3.5 L/kg; Cmax [8]: 762 nM |
| 1.26 | Cc1ccc(-c2ccc(S(=O)(=O)N3CCNC[C@H]3C(=O)N3CC[C@@H](N)C3)cc2)o1 |  |
| 0.2 | Cc1ccc(-c2ccc(S(=O)(=O)N3CC[C@H](O)[C@H]3C(=O)N3CC[C@@H](N)C3)cc2F)o1 |  |
| 0.501 | Cc1ccc(-c2ccc(S(=O)(=O)N3C[C@H](O)C[C@H]3C(=O)N3CC[C@@H](N)C3)cc2F)o1 |  |
| 31.6 | N[C@@H]1CCN(C(=O)[C@@H]2CCCCN2S(=O)(=O)c2ccc(-c3ccco3)cc2)C1 |  |
| 15.8 | N[C@@H]1CCN(C(=O)[C@@H]2CCCCN2S(=O)(=O)c2ccc(-c3ccccc3)cc2)C1 |  |
| 7.94 | N[C@H]1CCN(C(=O)[C@@H]2CCCCN2S(=O)(=O)c2ccc(-c3ccccc3)cc2)C1 |  |
| 0.316 | N[C@@H]1CCN(C(=O)[C@@H]2CCCCN2S(=O)(=O)c2ccc(-c3cc(Cl)ccc3Cl)cc2)C1 |  |
| 316 | N[C@H]1CCN(C(=O)[C@@H]2CCCCN2S(=O)(=O)c2ccc(-c3cccnc3)cc2)C1 |  |
| 398 | N[C@@H]1CCN(C(=O)[C@@H]2CCCCN2S(=O)(=O)c2ccc(Br)cc2)C1 |  |
| 15.8 | Cc1ccc(-c2ccc(S(=O)(=O)N3CC[C@H]3C(=O)N3CC[C@@H](N)C3)cc2F)o1 |  |
